Assay results: ChEMBL document CHEMBL1134415, “Potent and selective ET-A antagonists. 2. Discovery and evaluation of potent and water soluble N-(6-(2-(aryloxy)ethoxy)-4-pyrimidinyl)sulfonamide derivatives” (J Med Chem, 2001)

Tests used:
Endothelin-1 receptor [1] = molecular target: T1, Endothelin-1 receptor (Sus scrofa, UniProt Q29010); assay: Ability to inhibit [125I]ET1 binding to endothelin A receptor in porcine aortic membrane; type: cell membranes
T1 sequence (Q29010 whole entry): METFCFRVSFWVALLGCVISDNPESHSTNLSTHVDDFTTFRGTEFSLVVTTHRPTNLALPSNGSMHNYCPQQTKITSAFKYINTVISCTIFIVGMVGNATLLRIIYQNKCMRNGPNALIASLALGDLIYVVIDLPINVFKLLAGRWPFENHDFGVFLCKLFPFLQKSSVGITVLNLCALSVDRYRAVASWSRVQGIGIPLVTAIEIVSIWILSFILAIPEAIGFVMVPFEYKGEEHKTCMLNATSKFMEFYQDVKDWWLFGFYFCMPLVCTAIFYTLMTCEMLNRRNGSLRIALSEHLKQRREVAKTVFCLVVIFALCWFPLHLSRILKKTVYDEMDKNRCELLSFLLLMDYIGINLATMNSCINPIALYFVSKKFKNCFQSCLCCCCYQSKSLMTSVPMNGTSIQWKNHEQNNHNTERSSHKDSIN

[2] = Ability to inhibit specific binding of [125I]- -ET-1 to rat A 10 cells which express endothelin A receptor
Endothelin-1 receptor [3] = molecular target: T2, Endothelin-1 receptor (Homo sapiens, UniProt P25101); assay: Ability to inhibit [125I]ET1 binding to human cloned endothelin A receptor expressed on CHO cells; type: cell-based
T2 sequence (P25101 whole entry): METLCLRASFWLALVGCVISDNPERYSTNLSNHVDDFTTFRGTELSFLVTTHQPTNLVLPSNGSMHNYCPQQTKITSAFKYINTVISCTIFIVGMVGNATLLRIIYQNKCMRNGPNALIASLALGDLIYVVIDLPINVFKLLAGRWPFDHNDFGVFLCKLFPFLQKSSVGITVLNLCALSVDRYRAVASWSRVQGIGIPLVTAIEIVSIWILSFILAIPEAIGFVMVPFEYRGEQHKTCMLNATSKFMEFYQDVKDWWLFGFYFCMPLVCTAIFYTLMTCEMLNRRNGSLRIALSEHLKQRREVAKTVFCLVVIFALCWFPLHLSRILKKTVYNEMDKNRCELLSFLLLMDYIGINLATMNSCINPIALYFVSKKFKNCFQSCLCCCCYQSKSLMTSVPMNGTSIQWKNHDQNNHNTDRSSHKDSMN

[4] = molecular target: T3, Endothelin receptor type B (Homo sapiens, UniProt P24530); assay: Ability to inhibit [125I]-ET-1 binding to human cloned ETB receptors expressed on CHO cells; type: cell-based
T3 sequence (P24530 whole entry): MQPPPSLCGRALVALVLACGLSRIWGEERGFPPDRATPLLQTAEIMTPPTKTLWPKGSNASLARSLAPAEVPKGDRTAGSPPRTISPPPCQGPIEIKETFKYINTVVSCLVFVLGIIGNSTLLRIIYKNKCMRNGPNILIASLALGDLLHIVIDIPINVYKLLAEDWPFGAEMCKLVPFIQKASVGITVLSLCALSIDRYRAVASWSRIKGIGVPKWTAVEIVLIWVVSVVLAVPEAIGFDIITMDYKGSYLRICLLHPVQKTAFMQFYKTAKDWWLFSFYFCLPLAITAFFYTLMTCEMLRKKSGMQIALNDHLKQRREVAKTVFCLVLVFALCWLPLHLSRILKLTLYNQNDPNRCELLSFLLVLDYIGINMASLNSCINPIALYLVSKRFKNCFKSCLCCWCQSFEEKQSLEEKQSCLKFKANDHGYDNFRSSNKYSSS

[5] = molecular target: T3, Endothelin receptor type B; assay: Ability to inhibit specific binding of [125I]- -ET-1 to human GH cells which express endothelin B receptor; type: cell-based

Cc1ccc(-c2c(NS(=O)(=O)c3ccc(C(C)(C)C(=O)O)cc3)ncnc2OCCOc2ncc(Br)cn2)cc1
IC50 (Endothelin-1 receptor [1]): 1.4 nM

Cc1ccc(-c2c(NS(=O)(=O)c3ccc(C(C)(C)C)cc3)ncnc2OCCOc2ncc(Br)cn2)cc1
IC50 (Endothelin-1 receptor [1]): < 0.001 nM | IC50 [2]: 0.039 nM | Ki (Endothelin-1 receptor [3]): 0.0042 nM | Ki [4]: 130 nM

Cc1ccc(-c2c(NS(=O)(=O)c3ccc(C(C)(C)C)cc3)ncnc2OCCOc2ncc(CO)cn2)cc1
IC50 [5]: 31 nM

CSc1cnc(OCCOc2ncnc(NS(=O)(=O)c3ccc(C(C)(C)C)cc3)c2-c2ccc(CO)cc2)nc1
IC50 (Endothelin-1 receptor [1]): 0.04 nM

CSc1cnc(OCCOc2ncnc(NS(=O)(=O)c3ccc(C(C)(C)C)cc3)c2-c2ccc(C)cc2)nc1
IC50 (Endothelin-1 receptor [1]): < 0.001 nM

Cc1ccc(-c2c(NS(=O)(=O)c3ccc(C(C)(C)C)cc3)ncnc2OCCOc2ncc(C(=O)O)cn2)cc1
IC50 (Endothelin-1 receptor [1]): > 10 nM

CSc1cnc(OCCOc2ncnc(NS(=O)(=O)c3ccc(C(C)(C)C)cc3)c2-c2ccc(C(=O)O)cc2)nc1
IC50 (Endothelin-1 receptor [1]): > 10 nM

CC(C)(C)c1ccc(S(=O)(=O)Nc2ncnc(OCCOc3ncc(Br)cn3)c2-c2ccc(CO)cc2)cc1
IC50 (Endothelin-1 receptor [1]): 0.04 nM
